Where “and” joins values, the source holds several entries; their conditions need not be identical. Equal entries are not always repeated. Where two headings read alike, the source gives them in different places. Marks after values point to notes of the source that are not given here.
Columns and labels:
[1] = Dielectric constants of sunscreen ingredients at 25° C.; format: physicochemical; conditions: for Dielectric Constant at 25° C. (ε), estimated value: marked estimated; for Dielectric Constant at 25° C. (ε): neat ingredient
Source text: A step of determining the polarity of a mixture or an emulsion can be performed in various ways. For example, determining a polarity can include measuring a property that is a function of polarity, such as a dielectric constant. Measurement of a dielectric constant of a liquid can be performed by various sensors, such as immersion probes, flow-through probes, and cup-type probes, attached to various meters, such as those available from the Brookhaven Instruments Corporation of Holtsville, N.Y. (e.g., model BI-870) and the Scientifica Company of Princeton, N.J. (e.g. models 850 and 870). For consistency of comparison, preferably all measurements for a particular filter system are performed at substantially the same sample temperature, e.g., by use of a water bath. Generally, the measured dielectric constant of a substance will increase at lower temperatures and decrease at higher temperatures.
A mixture of solvent system and filter system, in accordance with one preferred embodiment, are combined with well-known cosmetically-acceptable additives, such as moisturizers, emollients, solvents, co-solvents, lubricants, thickeners, emulsifiers and/or other common cosmetic formulation additives for solubility of sunscreen active compounds, emulsification, thickening and to provide other skin enhancement, e.g., moisturizing properties. The compositions can be produced as oily lotions, gels, solid sticks, emulsions, aerosols, and all other forms of cosmetic compositions. The dielectric constants of various sunscreen additive materials are well known, see, Dielectric Constant Reference Guide of ASI Instruments, Inc., pages 1-64, (http://asiinstruments.com/dcl.html), hereby incorporated herein by reference.

[2] = marked literature value, cited from earlier work
[3] = Solvency testing of solvents for oxybenzone; format: physicochemical; conditions: solute oxybenzone dissolved in the named solvent
Source text: (§1) Examples of crystalline UV filters include oxybenzone, avobenzone, and octyl triazone (sold under the trade name UVINUL T-150 by BASF Corporation) and methylbenzilidene camphor.

[4] = Solvency testing of solvents for avobenzone; format: physicochemical; conditions: solute avobenzone dissolved in the named solvent
Source text: as §1

[5] = Solvency testing of solvents for octyl triazone; format: physicochemical; conditions: solute octyl triazone dissolved in the named solvent
Source text: as §1

[6] = Solvency for crystalline UV filters, comparison with traditional solvents; format: physicochemical; conditions: compared to traditional solvents used in sunscreen compositions
Source text: as §1

Molecule | Dielectric Constant at 25° C. (ε) [1] | Solvency for Oxybenzone [3] | Solvency for Avobenzone [4] | Solvency for Octyl triazone [5] | other results
COc1ccc(C(=O)CC(=O)c2ccc(C(C)(C)C)cc2)cc1 [Avobenzone, 4-(1,1-dimethylethyl)-4′-methoxydibenzoylmethane, reference compound] | – | – | – | – | Dielectric Constant at 25° C. (ε), estimated value [1]: ~10 (estimated.); Dielectric Constant at 25° C. (ε), estimated value ([1]; listed as avobenzone): ~10*
COc1ccc(C(=O)c2ccccc2)c(O)c1 [Benzophenone-3, benzophenone-3] | – | – | – | – | Dielectric Constant at 25° C. (ε), literature value ([2]; listed as benzophenone-3): 13^†; Dielectric Constant at 25° C. (ε), literature value [2]: 13
CCCCCCC(CCCC)COC(=O)CC(O)C(=O)OCC(CCCC)CCCCCC (centres unmarked) [Dibutyloctyl malate, bis(2-butyloctyl)malate] | 4.65 | – | – | – | –
CCCCC(CC)COC(=O)c1ccc2cc(C(=O)OCC(CC)CCCC)ccc2c1 (centres unmarked) [Diethylhexyl 2,6-naphthalate] | 4.34 | – | – | – | –
CCCCC(CC)COC(=O)CCCCC(=O)OCC(CC)CCCC (centres unmarked) [Diethylhexyl adipate] | 4.21 | 20% wt. % | 10% wt. % | <5% wt. % | –
CC(C)CCOC(=O)CC(O)C(=O)OCCC(C)C (centres unmarked) [Diisoamyl malate] | 7.42 | – | – | – | –
CCCCCCCCOC(=O)CC(O)C(=O)OCCCCCCCC (centres unmarked) [Dioctyl malate] | 4.74 and 5.78 | – | – | – | –
CCCCC(CC)COC(=O)C=Cc1ccc(OC)cc1 (centres unmarked) [Ethylhexyl methoxycinnamate, 2-ethylhexyl paramethoxycinnamate, reference compound] | 5.98 | 24% wt. % | 17% wt. % | 15% wt. % | –
CCCCCCCCCCCCCCCC(=O)OCC(CC)CCCC (centres unmarked) [Ethylhexyl palmitate] | 3.06 | – | – | – | –
CCCCC(CC)COC(=O)c1ccccc1O (centres unmarked) [Ethylhexyl salicylate, 2-ethylhexyl salicylate, reference compound] | 6.20 | 18% wt. % | 16% wt. % | 5% wt. % | Dielectric Constant at 25° C. (ε) ([1]; listed as octyl salicylate): 6.2
CCCCCCCCCCCCCCCCCC(=O)OCC(CC)CCCC (centres unmarked) [Ethylhexyl stearate] | 3.05 | – | – | – | –
CCCCCCCCCCCCCCCCCC(C)C [Isoeicosane] | 2.04 | – | – | – | –
CCCCCCCCCCCCCC(=O)OC(C)C [Isopropyl myristate] | 3.24 | 20% wt. % | 15% wt. % | <5% wt. % | –
CCCCCCCCCCCCCCCC(=O)OC(C)C [Isopropyl palmitate] | 3.20 | – | – | – | –
CCCCCCCCCC(=O)N(C)C [N,N-dimethyldecanamide] | 12.43 | 38% wt. % | 37% wt. % | 37% wt. % | ability to solvate crystalline UV filters (in words) [6]: far superior
CCCCC(CC)COC(=O)C(C#N)=C(c1ccccc1)c1ccccc1 (centres unmarked) [Octocrylene, 2-ethylhexyl-2-cyano-3,3 diphenylacrylate, reference compound] | 11.08 | 32% wt. % | 27% wt. % | 1% wt. % | –
O [Water] | 80 | – | – | – | –
Diethylhexyl malate | 4.74 and 5.88 | 19% wt. % and 15% wt. % | 12.5% wt. % and 15% wt. % | 5% wt. % and <5% wt. % | Dielectric Constant at 25° C. (ε) ([1]; listed as diethylhexyl malate): 5.88
Isododecyl alcohol dimer with HDI | – | – | – | – | Dielectric Constant at 25° C. (ε), estimated value [1]: ~10 (estimated.); Dielectric Constant at 25° C. (ε), estimated value ([1]; listed as isododecyl alcohol dimer w/HDI): ~10*
Octyldodecyl neopentanoate | 3.04 | – | – | – | –
PPG-2 myristyl ether propionate | 3.88 | – | – | – | –
isododecyl alcohol dimer with isopherone diisocyanate (IPDI) [Isododecyl alcohol dimer with IPDI] | – | – | – | – | Dielectric Constant at 25° C. (ε), estimated value [1]: ~10 (estimated.); Dielectric Constant at 25° C. (ε), estimated value ([1]; listed as isododecyl alcohol dimer w/IPDI): ~10*
